Test results taken from patent publication US9278940B2, “Cyclic amines as bromodomain inhibitors” (Zenith Epigenetics Corp., priority 2012, dated 2016).

Assays:
Brd4 bromodomain 1 = target: T1, Brd4 bromodomain 1 (Homo sapiens, UniProt O60885); assay: Inhibition of tetra-acetylated histone H4 binding to BET bromodomain (TR-FRET); parameters: key: Active: Compounds with an IC50 value less than 30 μM were deemed to be active.; Not Active: Compounds with an IC50 value less than 30 μM were deemed to be active; details: Brd4 bromodomain 1, tetra-acetylated histone H4 peptide
T1 construct: made in house; host or cells: E. coli BL21(DE3)
In short: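 N-terminally His-tagged bromodomain (200 nM, E. coli-expressed, Ni affinity and SEC purified) with biotinylated tetra-acetylated H4 peptide (25-50 nM), Eu-cryptate streptavidin and XL665 anti-His; 2 h at room temperature in HEPES pH 7.4/KF buffer, 0.2% DMSO. The 665/620 nm ratio decrease gave IC50 from dose-response curves.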

c-myc = assay: Inhibition of c-myc expression (mRNA, real-time PCR) in MV4-11 cells; format: cell-based; parameters: key: Active: Compounds with an IC50 value less than 30 μM were deemed to be active.; Not Active: Compounds with an IC50 value less than 30 μM were deemed to be active; details: Human AML MV4-11 cells, 3 hours
In short: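 MV4-11 cells (2.5×10^4) exposed to compound or 0.1% DMSO for 3 h at 37° C, then lysed for mRNA isolation. c-myc and cyclophilin cDNAs co-amplified by duplex RT real-time PCR. IC50 from dose-response curve.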

Human AML MV-4-11 cells = assay: Inhibition of cell proliferation in MV4-11 cells; format: cell-based; parameters: key: Active: Compounds with an IC50 value less than 30 μM are deemed to be active.; Not Active: Compounds with an IC50 value less than 30 μM are deemed to be active; details: 72 hours
In short: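 Exponentially growing MV-4-11 cells were treated immediately with two-fold compound dilutions from 30 µM to 0.2 µM in triplicate for 72 h at 37 °C. Viability was read by MTS (CellTiter Aqueous One) absorbance at 490 nm after 3-4 h; % proliferation vs DMSO gave IC50.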

hIL-6 mRNA = assay: Inhibition of hIL-6 mRNA transcription in LPS-stimulated U937 macrophages; format: cell-based, human; parameters: key: Active: Compounds with an IC50 value less than 30 μM are deemed to be active.; Not Active: Compounds with an IC50 value less than 30 μM are deemed to be active; details: U937 cells differentiated with PMA, 1 h pretreatment, LPS 3 h
In short: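 U937 cells differentiated to macrophages with 60 ng/mL PMA for 3 days, pretreated 1 h with compound, then stimulated with 1 ug/mL E. coli LPS for 3 h at 37° C. IL-6 mRNA measured by one-step qRT-PCR, Ct normalized to internal control, expressed as fold induction relative to control.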

hApoA-1 mRNA = assay: Up-regulation of hApoA-1 mRNA transcription in Huh7 cells; format: cell-based, human; parameters: key: Active: Compounds with an EC170 value less than 30 μM are deemed to be active.; Not Active: Compounds with an EC170 value less than 30 μM are deemed to be active; details: 48 hrs treatment, ApoA-I mRNA
In short: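 Huh7 cells plated 24 h before compound, then treated 48 h; mRNA isolated from lysates and ApoA-I quantified by one-step real-time PCR. Fold induction derived from Ct values relative to the matching DMSO control; EC170 reported as activity measure.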

| SMILES | FRET activity (IC50 < 30 μM) (Brd4 bromodomain 1) | c-myc activity (IC50 < 30 μM) (c-myc) | melting point | cell proliferation activity (IC50 < 30 μM) (Human AML MV-4-11 cells) | IL-6 activity (IC50 < 30 μM) (hIL-6 mRNA) | ApoA-1 activity (EC170 < 30 μM) (hApoA-1 mRNA) |
| --- | --- | --- | --- | --- | --- | --- |
| COc1cc(OC)c2c(=O)[nH]c(-c3cccc(N4CCN(C(C)C(N)=O)CC4)n3)nc2c1 (stereo not drawn) [Example 9, 2-(4-(6-(5,7-Dimethoxy-4-oxo-3,4-dihydroquinazolin-2-yl)pyridin-2-yl)piperazin-1-yl)propanamide] | Active | Not Active | 149 to 150 °C | Active | Not Active | Active |
| COCCN1CCN(c2cccc(-c3nc4cc(OC)cc(OC)c4c(=O)[nH]3)n2)CC1 [Example 3, 5,7-Dimethoxy-2-(6-(4-(2-methoxyethyl)piperazin-1yl)pyridin-2-yl)quinazolin-4(3H)-one] | Active | Active | 99 to 101 °C | Active | Active | Active |
| COc1cc(OC)c2c(=O)[nH]c(-c3cccc(N4CCN(C(C)CO)CC4)n3)nc2c1 (stereo not drawn) [Example 8, 2-(6-(4-(1-Hydroxypropan-2-yl)piperazin-1-yl)pyridin-2-yl)-5,7-dimethoxyquinazolin-4(3H)-one] | Active | Active | 202 to 204 °C | Active | Active | Active |
